Entries after “also recorded” stand apart in the source; their conditions may differ. Where two headings read alike, the source gives them in different places.
Assays:
Blood stability, rabbit = assay type: in vitro ADME; details: plasma, n=3
Method: (§1) Plasma from mice, rats, rabbits, and humans was obtained from blood after centrifugation at 3000 r/min for 10 min. Simulated gastric fluid (SGF, pH = 1, containing pepsin) and simulated intestinal fluid (SIF, pH = 6.8, containing trypsin) were configured previously in the experiments. SD rats and mice were collected, and after removing the mucus layer from the small intestine and colon, 20 times the volume of liquid bacterial culture medium was added. An intestinal microbiota suspension was obtained after anaerobic cultivation on a shaking table at 37 °C for 12 h. In the aforementioned systems, E3 was added at a final concentration of 1 μmol/L at 37 °C for different incubation times (0, 10, 20, 30, 60, 120, and 240 min). In liver metabolic stability assays, E3 was incubated with liver microsomes or liver homogenate from mice or rats for 60 min at 37 °C. The stop solution, 5 ng/mL tolbutamide (internal standard, IS) in acetonitrile, was added to stop the metabolic process. Post-centrifugation (18,000× g, 10 min, 4 °C), supernatants were subjected to liquid chromatography–tandem mass spectrometry (LC–MS/MS). Analyte-to-IS peak area ratios quantified residual percentages via Equation (2):Remaining% = (E3peak area/ISpeak area at different time)/(E3peak area/ISpeak area at 0 min) × 100%.(2)

[1] = Liver microsome metabolic stability, rat; assay type: in vitro ADME; details: 60 min incubation, 37 °C
Method: as §1

mice = experiment: Diuretic effect of single intragastric administration in mice (metabolic cages); assay type: in vivo, mouse
Method: In a single-dose administration experiment, male wild-type (WT) mice, UT-B^-/- mice, UT-A1^-/- mice, or SD rats were adapted in metabolic cages for 3 d. Food and water were provided ad libitum throughout the experiment. Prior to administration, the bladder of each animal was emptied through gentle abdominal massage, and urine was collected from the metabolic cages every 2 h. Compound E3, suspended in 0.5% CMC-Na at an appropriate concentration, was administered intragastric gavage to the mice or rats (0.16, 0.8, 4, or 20 mg/kg). Vehicle control comprised 0.5% (w/v) CMC-Na. Urinary parameters were determined through the following: volume: Gravimetric analysis (1 g/mL density assumption); osmolality: freezing-point osmometry (Micro-osmometer, […] Associates, Norwood, MA, USA); and urea: diacetyl oxime colorimetry (QuantiChrom® kit, Elabscience, Wuhan, China). In long-term (7 d) diuretic activity experiments, male WT mice, UT-B^-/- mice, UT-A1^-/- mice, and SD rats were acclimatized in metabolic cages (Ugo Basile, Comerio, VA, Italy) for 3 d. Food and water were provided ad libitum throughout the experiment. E3 was suspended in 0.5% CMC-Na and administered at a dose of 4 or 20 mg/kg by intragastric gavage. Urine was collected by metabolic cages every 24 h. Body weight was measured daily. At 4 h after the final administration, a blood sample was obtained by heart puncture. Inner medulla and outer medulla tissue homogenates were prepared, and the supernatant after centrifugation was analyzed for solute concentration and osmolality. Urinary osmolality and urea concentration were measured as above. Serum Na^+, K^+, and Cl^- were measured in a clinical chemistry laboratory, while serum creatinine, ALT, and AST were measured through specific reagent kits (NJJC Bio, Nanjing, China).

[2] = Intestinal microbiota stability, mouse; assay type: in vitro ADME
Method: as §1

[3] = Tissue distribution study in rats; assay type: in vivo, rat
Method: Male SD rats were randomly divided into four groups and received a single oral dose of E3 at 4 mg/kg. Blood and tissue samples (i.e., heart, liver, kidney, spleen, lung, brain, testis, skin, muscle, leg bone, stomach, small intestine, and colon) were collected at 0.5 h, 2 h, 6 h, and 24 h after dosing. Tissues were perfused with cold saline, blotted, weighed, and homogenized (10 vol/wt ice-cold H2O; T10 homogenizer, IKA, Staufen, Germany). The rats’ right shin bone was decalcified in methanol (4 °C, 12 h). Processed samples (−80 °C storage) underwent LC-MS/MS analysis as described.
The analyte E3 and IS were dissolved in DMSO to generate the stock solutions. The working calibration of E3 was gradient-diluted with MeOH/H2O (1:1, v/v). Three microliters of working solutions were spiked with 27 μL of the blank rat plasma to establish the calibration standards. The final concentrations of the standard samples were 1, 2, 5, 10, 50, 250, 500, and 1000 ng/mL. Quality control samples (3/100/800 ng/mL) were prepared using identical protein precipitation protocols. Briefly, 30 μL calibrators and biological matrices were mixed with 450 μL stop solution, vortexed (5 min), and centrifuged (18,000× g, 10 min, 4 °C). Processed supernatants (2 μL injection volume) were subjected to LC-MS/MS analysis.
The analysis was conducted by an Xevo TQ-S Cronos Triple Quadrupole Mass Spectrometer coupled with an ACQUITY UPLC (Waters Corp, Milford, MA, USA). The chromatographic separation was conducted in an ACQUITY UPLC BEH C18 1.7 µm column (Waters, Milford, MA, USA) at 40 °C with a flow rate of 0.4 mL/min. The mobile phases were 0.1% (v/v) formic acid in water (A) and pure ACN (B). […] An electrospray ionization (ESI) source with multiple–reaction monitoring (MRM) in positive–ion mode was employed to quantify the analytes with the transitions of m/z 385.11 > 244.19 and m/z 271.136 > 91.01 for E3 and IS, respectively. The optimized cone voltage is 10 V and 24 V for E3 and IS, respectively. The collision energy is 12 V and 32 V for E3 and IS, respectively. MassLynx v4.2 (Waters Corp, Milford, MA, USA) was used for data acquisition and analysis.

Blood stability, rat = assay type: in vitro ADME; details: plasma, n=3
Method: as §1

[4] = UT-A1−/− mice, 20 mg/kg single dose
[5] = UT-B−/− mice, 20 mg/kg single dose
[6] = mice, single intragastric gavage

Question: Which remaining at 1 μmol/L (Blood stability, rabbit) does the source give for CC(=O)c1ccc(C(=O)Nc2cccc(NS(=O)(=O)c3ccccc3)c2)o1 [Compound E3, 5-acetyl-N-(3-(phenylsulfonamido)phenyl)furan-2-carboxamide] here?
Answer: Its remaining at 1 μmol/L is 35.7%.

Question: What about the “remaining amount, rat liver microsomes” value [1] of the same molecule?
Answer: The value was 61.1%.

Question: What about the “excretion of non-urea solutes” value (mice; [4]) of the same molecule?
Answer: Its value is “not significantly changed”.

Question: What about the “urea concentration (urine)” value (mice; [4]) of the same molecule?
Answer: The value was “no significant change”.

Question: And the urinary osmolality (mice; [4])?
Answer: The urinary osmolality was “no significant change”.

Question: What about the urine output (mice; [4]) of the same molecule?
Answer: The urine output was “no significant change”.

Question: And the “excretion of non-urea solutes” value (mice; [5])?
Answer: Its value is “not significantly changed”.

Question: And the urinary osmolality (mice; [5])?
Answer: The urinary osmolality was “decreased correspondingly”.

Question: What about the urinary urea (mice; [5]) of the same molecule?
Answer: The urinary urea was “decreased correspondingly”.

Question: And the urine output (mice; UT-B−/− mice, 20 mg/kg single dose, 2 h post administration)?
Answer: The urine output was “markedly increased”.

Question: What about the urinary osmolality (mice; [6]) of the same molecule?
Answer: The urinary osmolality was “decreased”.

Question: And the urinary urea (mice; [6])?
Answer: Its urinary urea is “decreased”.

Question: What about the urine output (mice; mice, single intragastric gavage 0.16-20 mg/kg, vs vehicle) of the same molecule?
Answer: Its urine output is “significantly increased”.

Question: What about the “excretion of non-urea solutes” value (mice; mice, single intragastric gavage, vs control) of the same molecule?
Answer: The value was “not significantly different”.

Question: And the remaining at 4 h, 1 μmol/L ([2]; colon microbiota suspension, n=3, read-out: Mouse colon microbiota (remaining %))?
Answer: Its remaining at 4 h, 1 μmol/L is 89.3%.

Question: What about the remaining at 4 h, 1 μmol/L ([2]; small intestine microbiota suspension, n=3, read-out: Mouse small intestine microbiota (remaining %)) of the same molecule?
Answer: The remaining at 4 h, 1 μmol/L was 87.3%.

Question: And the “permeability to the blood–brain barrier (BBB) and blood–testis barrier (BTB)” value ([3]; inferred from tissue distribution)?
Answer: Its value is “lower permeability; also recorded: low permeability”.

Question: And the “concentration in kidney relative to other tissues” value ([3]; single oral 4 mg/kg)?
Answer: Its value is “highest concentration”.

Question: What about the “distribution in the brain, testis” value ([3]; single oral 4 mg/kg) of the same molecule?
Answer: The value was “relatively low distribution”.

Question: And the “time of peak drug concentration in most tissues” value ([3]; single oral 4 mg/kg, post-administration)?
Answer: Its value is 2 h.

Question: And the remaining at 1 μmol/L (Blood stability, rat)?
Answer: Its remaining at 1 μmol/L is 46.8%.

Reference: publication PMC12024912, “Druggability Studies of Benzene Sulfonamide Substituted Diarylamide (E3) as a Novel Diuretic” (Biomedicines, 2025)
